The target of series [1] is T1, human BACE2 (Homo sapiens, UniProt Q9Y5Z0).
T1 sequence (Q9Y5Z0 63-518): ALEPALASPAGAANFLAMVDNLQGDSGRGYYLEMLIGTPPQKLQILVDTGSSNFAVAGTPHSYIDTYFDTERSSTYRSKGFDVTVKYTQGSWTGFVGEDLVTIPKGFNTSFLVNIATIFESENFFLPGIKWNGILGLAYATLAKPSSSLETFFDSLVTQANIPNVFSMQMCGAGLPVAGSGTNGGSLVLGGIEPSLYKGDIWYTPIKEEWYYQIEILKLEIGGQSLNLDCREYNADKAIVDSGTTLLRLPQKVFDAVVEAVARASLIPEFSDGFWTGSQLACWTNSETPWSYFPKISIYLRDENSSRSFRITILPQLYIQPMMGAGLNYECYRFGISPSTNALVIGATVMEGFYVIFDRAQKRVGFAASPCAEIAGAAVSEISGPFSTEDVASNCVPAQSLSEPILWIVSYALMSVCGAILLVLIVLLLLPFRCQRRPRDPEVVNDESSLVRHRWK
The experiment in a line: Fluorescent kinetic assay for human recombinant BACE 2 (WABC-6 peptide substrate). The settings on record: for inhibition at 25 µM: read-out: BACE2. % inhibition; for IC50: 1.5 nM enzyme, 25 μM substrate, pH 4.5, room temperature. It is filed as biochemical. The protocol:
Fluorescent Kinetic Assay for Human Recombinant BACE 2
This assay is used to provide kinetic and selectivity parameters for the analyses of the tested compounds.
Temperature: room temperature.
Dilution and Mixing Steps: Total Reaction Volume.: 100 μL • 1.
Readings at λex 320 nm, λem 420 nm are taken every 40-sec for 30 min at room temperature and to determine the linear slope for substrate cleavage rate (vi).

The target in series [2] is human BACE1 (Homo sapiens, UniProt P56817). The experiment in a line: Fluorescent kinetic assay, inhibition of BACE1 (WABC-6 peptide substrate). It is filed as biochemical. How it is done:
Evaluation of the Enzyme Activity of Test Compounds and the Inhibition of hBACE1, MuBACE1 and hBACE2 by Test Compounds
The concentration is determined by absorbance at 354 nm using an extinction coefficient ε of 18172 M^−1cm^−1, The substrate stock is stored in small aliquots at −80° C. [Substrate Stock]=ABS^354 nm*10^6/18172 ([…])
Dilution and mixing steps: total reaction volume: 100 μL • 1. 2× inhibitor dilutions in buffer A (66.7 mM Na-Acetate, pH 4.5, 0.0667% CHAPS) are prepared, • 2. 4× enzyme dilution in buffer A (66.7 mM Na-Acetate, pH 4.5, 0.0667% CHAPS) are prepared, • 3. 100 μM substrate dilution in 1× PBS is prepared, • 4. 50 μL 2× Inhibitor and 25 μL 100 μM substrate are added to each well of 96-well plate (from DYNEX Technologies, VWR #: 11311-046), the immediately 25 μL 4× enzyme are added to the inhibitor and substrate mixer, the fluorescence readings are initiated.
Readings at λex 320 nm and λem 420 nm are taken every 40-sec for 30 min at room temperature to determine the linear slope for substrate cleavage rate (vi).

Where [3] appears, read: 10 nM enzyme, 25 μM substrate, pH 4.5, room temperature, read-out: IC50 (μM) BACE1.

Where two headings read alike, the source gives them in different places.

What is called inhibition is the share of the control response that was lost under treatment. Usually IC50 stands for the point on the concentration scale where inhibition reaches its midpoint. One may read the melting point as the temperature, or range, at which the solid turns liquid.

Sequence of human BACE1 (P56817 46-501): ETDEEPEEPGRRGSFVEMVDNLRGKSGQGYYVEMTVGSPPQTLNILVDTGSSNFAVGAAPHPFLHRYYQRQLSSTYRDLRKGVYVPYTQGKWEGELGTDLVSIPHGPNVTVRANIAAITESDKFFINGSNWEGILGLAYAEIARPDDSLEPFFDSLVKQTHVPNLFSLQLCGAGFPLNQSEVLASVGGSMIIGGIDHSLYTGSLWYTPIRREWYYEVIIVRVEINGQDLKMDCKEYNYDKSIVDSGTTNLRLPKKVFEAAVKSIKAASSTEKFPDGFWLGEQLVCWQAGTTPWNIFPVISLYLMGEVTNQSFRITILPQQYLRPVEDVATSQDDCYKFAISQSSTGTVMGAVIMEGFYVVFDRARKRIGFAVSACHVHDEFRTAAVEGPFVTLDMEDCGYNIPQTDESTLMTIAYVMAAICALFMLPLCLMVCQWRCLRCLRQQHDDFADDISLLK

In the case of `NC1=N[C@](c2ccc(OC(F)(F)F)cc2)(c2cccc(-c3cccnc3F)c2)C2=NCCCN12` (single isomer, unassigned) [Example 30A], the inhibition at 25 µM in series [1] (at 25 μM) worked out at 35%.

As for `NC1=N[C@@](c2ccc(OC(F)(F)F)cc2)(c2cccc(-c3cccnc3F)c2)C2=NCCCN12` (single isomer, unassigned) [Example 30B], in series [1], the IC50 is 3.79 µM. Same read-out and setting: the same measure for `NC1=N[C@](c2ccc(OC(F)(F)F)cc2)(c2cccc(-c3cncnc3)c2)C2=NCCCN12` (single isomer, unassigned) [Example 31A]: 10.4 µM. On to `NC1=N[C@@](c2ccc(OC(F)(F)F)cc2)(c2cccc(-c3cncnc3)c2)C2=NCCCN12` (single isomer, unassigned) [Example 31B], for which, in series [1], the inhibition at 25 µM worked out at 28%. As for `NC1=NC(c2ccc(OC(F)(F)F)cc2)(c2cccc(-c3cncnc3)c2)c2nccn21` (stereo not shown) [Example 5], in series [2] (setting [3]), the IC50 was found to be 0.23 µM. In series [1] (at 25 μM), the inhibition at 25 µM worked out at 50%. The compound `NC1=NC(c2ccc(OC(F)(F)F)cc2)(c2ccc(F)c(-c3cncnc3)c2)C2=NCCCN12` (stereo not shown) [Example 13, 8-{[(4-Fluoro-3-pyrimidin-5-yl)phenyl]-8-[4-(trifluoromethoxy)phenyl]-2,3,4,8-tetrahydroimidazo[1,5-a]pyrimidin-6-yl}amine] showed a melting point of 105 to 115 °C. Further, the IC50 in series [2] (setting [3]) amounted to 0.15 µM. Also, the inhibition at 25 µM in series [1] (at 25 μM) worked out at 25%. Regarding `NC1=NC(c2ccc(OC(F)(F)F)cc2)(c2ccc(F)c(-c3cncc(F)c3)c2)C2=NCCCN12` (stereo not shown) [Example 14, {8-[4-Fluoro-3-(5-fluoropyrimidin-3-yl)phenyl]-8-[4-(trifluoromethoxy)phenyl]-2,3,4,8-tetrahydroimidazo[1,5-a]pyrimidin-6-yl}amine], the melting point is 94 to 105 °C. Besides, the IC50 in series [2] (setting [3]) is 0.14 µM. In series [1], the inhibition at 25 µM was found to be 65%.

In turn, `NC1=NC(c2ccc(OC(F)(F)F)cc2)(c2cccc(-c3cncnc3)c2)C2=NCCCN12` (stereo not shown) [Example 16, 8-(3-pyrimidin-5-ylphenyl)-8-[4-(trifluoromethoxy)phenyl]-2,3,4,8-tetrahydroimidazo[1,5-a]pyrimidin-6-amine] registered a melting point of 214 to 218 °C. In addition, the inhibition at 25 µM in series [1] worked out at 49%. `NC1=NC(c2ccc(OC(F)(F)F)cc2)(c2cccc(-c3cccnc3F)c2)C2=NCCCN12` (stereo not shown) [Example 17, 8-[3-(2-fluoropyridin-3-yl)phenyl]-8-[4-(trifluoromethoxy)phenyl]-2,3,4,8-tetrahydroimidazo[1,5-a]pyrimidin-6-amine] had a melting point of 105 to 115 °C. Besides, in series [1], the IC50 is 11.4 µM.

`COc1ccc(C2(c3cccc(-c4cncnc4)c3)N=C(N)N3CCCN=C32)cc1` (stereo not shown) [Example 22, 8-(4-methoxyphenyl)-8-(3-pyrimidin-5-ylphenyl)-2,3,4,8-tetrahydroimidazo[1,5-a]pyrimidin-6-amine]: the melting point lay within 136 to 140 °C. In addition, the inhibition at 25 µM in series [1] (at 25 μM) is 60%. In turn, `NC1=NC(c2ccc(OC(F)(F)F)cc2)(c2cccc(-c3cnccc3F)c2)C2=NCCCN12` (stereo not shown) [Example 27, 8-[3-(4-fluoropyridin-3-yl)phenyl]-8-[4-(trifluoromethoxy)phenyl]-2,3,4,8-tetrahydroimidazo[1,5-a]pyrimidin-6-amine] came in with a melting point of 83 to 97 °C. On the same count and under the same terms, next, `N#CNC1=NC(c2ccc(OC(F)(F)F)cc2)(c2cccc(-c3cncnc3)c2)C2=NCCCN12` (stereo not shown) [Example 29, 8-(3-Pyrimidin-5-yl-phenyl)-8-(4-trifluoromethoxy-phenyl)-2,3,4,8-tetrahydro-imidazo[1,5-a]pyrimidin-6-yl-cyanamide]: 227 to 231 °C. `NC1=N[C@@](c2ccc(OC(F)(F)F)cc2)(c2cccc(-c3cncc(Cl)c3)c2)C2=NCCCN12` [Example 32A, (8S)-8-[3-(5-Chloropyridin-3-yl)phenyl]-8-[4-(trifluoromethoxy)-phenyl]-2,3,4,8-tetrahydroimidazo[1,5-a]pyrimidin-6-amine]: the IC50 in series [2] (setting [3]) was determined as 0.029 µM; in series [1], 0.272 µM. `NC1=N[C@](c2ccc(OC(F)(F)F)cc2)(c2cccc(-c3cncc(Cl)c3)c2)C2=NCCCN12` [Example 32B, (8R)-8-[3-(5-Chloropyridin-3-yl)phenyl]-8-[4-(trifluoromethoxy)-phenyl]-2,3,4,8-tetrahydroimidazo[1,5-a]pyrimidin-6-amine] displayed an inhibition at 5 µM in series [2] of 19%. Besides, the inhibition at 25 µM in series [1] (at 25 μM) was 34%. Take `NC1=N[C@@](c2ccc(OC(F)(F)F)cc2)(c2cccc(-c3cnccc3F)c2)C2=NCCCN12` [Example 33A, (8S)-8-[3-(4-fluoropyridin-3-yl)phenyl]-8-[4-(trifluoromethoxy)-phenyl]-2,3,4,8-tetrahydroimidazo[1,5-a]pyrimidin-6-amine]: the figures for the IC50 in series [2] (setting [3]) and in series [1] were 0.05 µM and 4 µM, respectively. For the compound `NC1=N[C@](c2ccc(OC(F)(F)F)cc2)(c2cccc(-c3cnccc3F)c2)C2=NCCCN12` [Example 33B, (8R)-8-[3-(4-fluoropyridin-3-yl)phenyl]-8-[4-(trifluoromethoxy)phenyl]-2,3,4,8-tetrahydroimidazo[1,5-a]pyrimidin-6-amine], the inhibition at 5 µM in series [2] was found to be 43%. For the same compound, the inhibition at 25 µM in series [1] (at 25 μM) amounted to 25%.

Consider `NC1=NC(c2ccc(OC(F)(F)F)cc2)(c2cccc(-c3ccc[n+]([O-])c3F)c2)C2=NCCCN12` (stereo not shown) [Example 34, 8-[3-(2-Fluoro 1-oxy-pyridin-3-yl)-phenyl]-8-(4-trifluoromethoxy-phenyl)-2,3,4,8-tetrahydro-imidazo[1,5-a]pyrimidin-6-ylamine], for which the inhibition at 25 µM in series [1] (at 25 μM) turned out to be 25%. In the case of `NC1=NC(c2ccc(OC(F)(F)F)cc2)(c2cccc(-c3cccnc3F)c2)C2=NCCCCN12` (stereo not shown) [Example 36, 9-[3-(2-Fluoro-pyridin-3-yl)-phenyl]-9-(4-trifluoromethoxy-phenyl)-2,4,5,9-tetrahydro-3H-imidazo[1,5-a][1,3]diazepin-7-ylamine], the IC50 in series [2] was determined as 0.071 µM; in series [1], 7.32 µM. Turning to `NC1=NC(c2ccc(OC(F)(F)F)cc2)(c2cccc(-c3cccnc3F)c2)C2=NCCCCCN12` (stereo not shown) [Example 37, 1-[3-(2-Fluoro-pyridin-3-yl)-phenyl]-1-(4-trifluoromethoxy-phenyl)-1,4,5,6,7,8-hexahydro-2,3a,9-triaza-cyclopentacycloocten-3-ylamine], the IC50 in series [1] was determined as 10.8 µM.

Regarding `NC1=NC(c2cccc(-c3cccnc3F)c2)(c2ccc3c(c2)OCO3)C2=NCCCN12` (stereo not shown) [Example 40, 8-Benzo[1,3]dioxol-5-yl-8-[3-(2-fluoro-pyridin-3-yl)-phenyl]-2,3,4,8-tetrahydro-imidazo[1,5-a]pyrimidin-6-ylamine], the melting point is 106 to 119 °C. For the same compound, in series [2] (read-out: IC50 (μM) BACE1.), the IC50 worked out at 0.16 µM.

For `CC1(C)CN2C(N)=NC(c3ccc(OC(F)(F)F)cc3)(c3cccc(-c4cccnc4F)c3)C2=N1` (stereo not shown) [Example 42, 7-[3-(2-Fluoropyridin-3-yl)phenyl]-2,2-dimethyl-7-(4-trifluoromethoxyphenyl)-2,7-dihydro-3H-imidazo[1,5-a]imidazol-5-ylamine], the IC50 in series [2] (setting [3]) stood at 0.15 µM. In addition, in series [1] (at 25 μM), the inhibition at 25 µM was 52%. As for `NC1=N[C@](c2ccc(OC(F)F)cc2)(c2cccc(-c3cccnc3F)c2)C2=NCCCN12` [Example 45A, (8R)-8-(4-Difluoromethoxy-phenyl)-8-[3-(2-fluoro-pyridin-3-yl)-phenyl]-2,3,4,8-tetrahydro-imidazo[1,5-a]pyrimidin-6-ylamine], the IC50 came to 0.01 µM in series [2] (setting [3]) and 0.7 µM in series [1]. The compound `NC1=N[C@@](c2ccc(OC(F)F)cc2)(c2cccc(-c3cccnc3F)c2)C2=NCCCN12` [Example 45B, (8S)-8-(4-Difluoromethoxy-phenyl)-8-[3-(2-fluoro-pyridin-3-yl)-phenyl]-2,3,4,8-tetrahydro-imidazo[1,5-a]pyrimidin-6-ylamine] showed an inhibition at […] in series [2] (at 2.5 uM) of 49%. Moreover, the inhibition at 25 µM in series [1] (at 25 μM) amounted to 60%.

The values are drawn from patent US20090042912A1, “DIPHENYLIMIDAZOLYL COMPOUNDS AS INHIBITORS OF beta-SECRETASE” (Wyeth, priority 2004, published 2009).
